Data set [1] can be described thus: Solid stability assay (XRPD, HPLC). The data set is classed as physicochemical. As for the experimental part: Sample concentration: 0.5 mg/mL
According to influencing factor and accelerated assay conditions, about 5 mg of the crystal form B of the compound of formula (I) was accurately weighed and placed in a dry and clean glass bottle to form a thin layer as a formal assay sample in duplicate. The sample was placed under an influencing factor assay condition (60° C., 92.5% RH) and accelerated conditions (40° C./75% RH and 60° C./75% RH). The sample was fully exposed, and covered with aluminum foil paper punched with small holes. In addition, a small amount of sample was placed in a 40 mL glass sample bottle under the same conditions to determine the crystal state. The sample placed under light irradiation condition (1.2×10^6 Lux•hr/near ultraviolet 200 w•hr/m^2) was fully exposed at room temperature.

The subject of data set [2] is subcutaneous xenograft tumor of human gastric cancer NCI-N87 cells. Nature of the data set: In vivo pharmacodynamics, NCI-N87 subcutaneous xenograft (Assay Example 4). On the set-up: species or system mouse. Particulars: 0.5 mg/kg, compared with the vehicle control group. As for the experimental part: (§1) Purpose of the assay: in vivo efficacy of the assay compound disclosed herein on subcutaneous xenograft tumor of human gastric cancer NCI-N87 cells in a BALB/c nude mouse model was evaluated.
Animals of the assay: female BALB/c nude mice, 6-8 weeks old, weighted 18-22 grams; supplier: shanghai sippr bk laboratory animals Ltd.
Human gastric cancer NCI-N87 cells were cultured in monolayer in vitro. The culture conditions were RPMI-1640 medium plus 10% fetal bovine serum, 100 U/mL penicillin, 100 μg/mL streptomycin, 37° C., 5% CO2. The passaging was performed by conventional digestion with trypsin-EDTA twice a week. When the cell saturation was 80%-90%, the cells were collected, counted and inoculated.
0.2 mL (10×10^6) of NCI-N87 cells (PBS+Matrigel, 1:1) were inoculated subcutaneously on the right back of each mouse. […]
The assay index was to investigate whether tumor growth is inhibited, delayed or cured. Tumor diameter was measured twice a week with a vernier caliper. […]
The antitumor efficacy of the compounds was evaluated by TGI (%) or tumor proliferation rate T/C (%). […]
Statistical analysis included the mean and standard error of mean (SEM) of tumor volume at each time point in each group (See Table 14 for specific data). […] The comparison between groups was analyzed by T-test, and the comparison among three or more groups was analyzed by one-way ANOVA. […]

In data set [3] the test system is subcutaneous xenograft tumor of human esophageal carcinoma OE21 cells. Nature of the data set: In vivo pharmacodynamics, OE21 subcutaneous xenograft (Assay Example 5). On the set-up: species or system mouse. As for the experimental part: Purpose of the assay: in vivo efficacy of the assay compound on subcutaneous xenograft tumor of human esophageal carcinoma OE21 cells in a BALB/c nude mouse model was evaluated.
Animals of the assay: female BALB/c nude mice, 6-8 weeks old, weighted 17-23 grams; supplier: shanghai sippr bk laboratory animals Ltd.
Human esophageal carcinoma OE21 cells were cultured in monolayer in vitro. The culture conditions were RPMI-1640 medium plus 10% fetal bovine serum, 100 U/mL penicillin, 100 U/mL streptomycin and 2 mM glutamine, 37° C., 5% CO2. The passaging was performed by conventional digestion with trypsin-EDTA twice a week. When the cell saturation was 80%-90%, the cells were collected, counted and inoculated.
0.1 ml […] OE21 cells (PBS) were inoculated subcutaneously on the right back of each mouse. When the average tumor volume reached 112 mm^3, administration to each group was started.
The assay compound was formulated into a 0.15 mg/mL to 0.3 mg/mL clear or suspension solution in the solvents of 10% NMP+10% ethylene glycol stearate+80% water.
The assay index was to investigate whether tumor growth is inhibited, delayed or cured. Tumor diameter was measured twice a week with vernier caliper. The calculation formula of tumor volume was: V=0.5a×b^2, wherein a and b represent the long and short diameters of tumor, respectively.
The antitumor efficacy of the compounds was evaluated by TGI (%) or relative tumor proliferation rate T/C (%). TGI (%) reflects the tumor growth inhibition rate. TGI (%) was calculated as follows: TGI (%)=[(1−average tumor volume at the end of administration for a certain treatment group−average tumor volume at the beginning of administration for this treatment group))/(average tumor volume at the end of treatment for a vehicle control group−average tumor volume at the beginning of administration for this vehicle control group)]×100%.
Relative tumor proliferation rate T/C (%): the calculation formula was as follows: T/C (%)=average tumor volume at the end of administration for a certain treatment group/average tumor volume at the end of treatment for the vehicle control group×100%.
Statistical analysis included the mean and standard error of mean (SEM) of tumor volume at each time point in each group. One-way ANOVA was used for comparison among three or more groups. […] SPSS 17.0 was used for all data analysis. p<0.05 was considered a significant difference.

A further data set deals with T1, CYP3A4 (Homo sapiens, UniProt P08684).
T1 construct: in the assay of CYP enzyme activity in human liver microsome; from tissue; host or cells: human liver microsome
T1 sequence (P08684 whole entry): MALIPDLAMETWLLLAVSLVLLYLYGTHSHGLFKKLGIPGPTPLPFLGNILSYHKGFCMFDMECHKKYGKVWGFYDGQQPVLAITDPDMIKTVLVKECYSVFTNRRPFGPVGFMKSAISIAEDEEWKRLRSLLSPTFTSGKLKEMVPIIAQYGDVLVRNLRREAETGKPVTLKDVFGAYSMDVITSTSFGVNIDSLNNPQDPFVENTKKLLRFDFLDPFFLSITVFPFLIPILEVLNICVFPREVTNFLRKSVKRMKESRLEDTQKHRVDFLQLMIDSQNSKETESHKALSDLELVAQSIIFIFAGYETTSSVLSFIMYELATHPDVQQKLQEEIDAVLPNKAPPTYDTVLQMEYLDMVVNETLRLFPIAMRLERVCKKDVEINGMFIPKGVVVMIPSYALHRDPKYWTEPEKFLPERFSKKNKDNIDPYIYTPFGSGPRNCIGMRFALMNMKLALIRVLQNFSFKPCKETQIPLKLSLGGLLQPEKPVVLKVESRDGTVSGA
Nature of the data set: Inhibition of CYP enzyme activity in human liver microsome, CYP3A4. The data set is classed as in vitro ADME. From the text: (§2) The results of the compound disclosed herein and the reference compound Poziotinib in the assay of CYP enzyme activity in human liver microsome were shown in the following table (Table 17).
For orientation: Liver microsomes are vesicles of endoplasmic reticulum, rich in cytochrome P450 enzymes.

The subject of data set [4] is subcutaneous xenograft tumor of human gastric cancer NCI-N87 cells. The data set is described as follows: In vivo pharmacodynamics, NCI-N87 subcutaneous xenograft (Assay Example 3). Set-up: species or system mouse. Particulars: 0.8 mg/kg, compared with the vehicle control group. As to the method:
as §1
Animals of the assay: female BALB/c nude mice, 6-8 weeks old, weighted 18-22 grams; supplier: Shanghai Ling Chang Biotechnology Co., Ltd.
Human gastric cancer NCI-N87 cells were cultured in monolayer in vitro. The culture conditions were RPMI-1640 medium plus 10% fetal bovine serum, 100 U/mL penicillin, 100 U/mL streptomycin and 2 mM glutamine, 37° C., 5% CO2. The passaging was performed by the conventional digestion with trypsin-EDTA twice a week. When the cell saturation was 80%-90%, the cells were collected, counted and inoculated.
0.2 mL (10×10^6) of NCI-N87 cells (PBS+Matrigel, 1:1) were inoculated subcutaneously on the right back of each nude mouse. When the average tumor volume reached 158 mm^3, administration to each group was started.
The assay compounds were formulated into 0.04 mg/mL and 0.08 mg/mL clear solution in the solvents of 10% NMP (N-methylpyrrolidone)+10% ethylene glycol stearate+80% water.
The assay index was to investigate whether tumor growth is inhibited, delayed or cured. Tumor diameter was measured twice a week with a vernier caliper. The calculation formula of tumor volume was: V=0.5a×b^2, wherein a and b represent the long and short diameters of tumor, respectively.
The antitumor efficacy of the compounds was evaluated by TGI (%) or tumor proliferation rate T/C (%). TGI (%) reflects tumor growth inhibition rate. […]
Statistical analysis included mean and standard error of mean (SEM) of tumor volume at each time point in each group (See Table 13 for specific data). […] The comparison between groups was analyzed by T-test, and the comparison among three or more groups was analyzed by one-way ANOVA. […]

The target in a further data set is T2, CYP1A2 (Homo sapiens, UniProt P05177).
T2 construct: in the assay of CYP enzyme activity in human liver microsome; from tissue; host or cells: human liver microsome
T2 sequence (P05177 1-516): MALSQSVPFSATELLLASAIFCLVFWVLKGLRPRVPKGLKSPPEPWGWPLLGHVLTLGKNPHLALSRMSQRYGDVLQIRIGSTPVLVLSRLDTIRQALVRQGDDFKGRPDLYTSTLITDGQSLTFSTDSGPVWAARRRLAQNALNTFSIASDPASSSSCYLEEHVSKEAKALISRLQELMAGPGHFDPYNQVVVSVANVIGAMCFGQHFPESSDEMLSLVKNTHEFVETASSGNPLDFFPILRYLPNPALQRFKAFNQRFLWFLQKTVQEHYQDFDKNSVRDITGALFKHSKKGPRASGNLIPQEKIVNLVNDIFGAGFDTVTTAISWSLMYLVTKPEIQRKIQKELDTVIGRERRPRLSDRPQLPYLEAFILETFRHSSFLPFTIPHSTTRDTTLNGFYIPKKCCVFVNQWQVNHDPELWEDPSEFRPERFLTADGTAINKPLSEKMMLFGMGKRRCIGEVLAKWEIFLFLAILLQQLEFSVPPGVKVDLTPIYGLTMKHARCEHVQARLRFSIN
The data set is described as follows: Inhibition of CYP enzyme activity in human liver microsome, CYP1A2. The data set is classed as in vitro ADME. The following applies: human liver microsome.
Text: as §2

Structures are written as SMILES.

`C=CC(=O)N1[C@@H]2CC[C@H]1C[C@H](Nc1cc3c(Nc4ccc(Cl)c(Cl)c4F)ncnc3cc1OC)C2.O=C(O)/C=C\C(=O)O`: the Total impurity content in data set [1] (40° C., 75% relative humidity, open, 1 month) is 1.62%; in data set [1] (40° C., 75% relative humidity, open, 2 months), 1.52%; in data set [1] (40° C., 75% relative humidity, open, 3 months) it was 1.52%; in data set [1] (40° C., 75% relative humidity, open, 10 days) it was 1.64%; in data set [1] (60° C., 75% relative humidity, open, 1 month), 1.62%; in data set [1] (60° C., 75% relative humidity, open, 10 days), 1.63%. Moreover, the Total impurity content in data set [1] (High humidity (25° C./92.5% relative humidity, open), 5 days) worked out at 1.65%; in data set [1] (High humidity (25° C./92.5% relative humidity, open), 10 days), 1.65%; in data set [1] (High temperature (60° C., open), 5 days), 1.64%; in data set [1] (High temperature (60° C., open), 10 days) it was 1.64%; in data set [1] (Initial, 0 day), 1.64%; in data set [1] (Light irradiation (1.2 × 10^6 Lux · hr/near ultraviolet 200 w · hr/m^2, open), 10 days) it was 1.66%. This compound also yielded a Total impurity content in data set [1] (Protected from light, 10 days) of 1.64%. The “solid stability (in words)” value in data set [1] (conclusion over all conditions) is listed as “good stability”.
For the compound `C=CC(=O)N1CCC(Nc2cc3c(Nc4ccc(F)c(Cl)c4)ncnc3cc2OC)CC1` [Control compound 2, reference compound], the “tumor inhibitory effect (in words)” value in data set [2] is on record as “not significant”.
On to `C=CC(=O)N1CCC(Oc2cc3c(Nc4ccc(Cl)c(Cl)c4F)ncnc3cc2OC)CC1` [Poziotinib, reference compound], for which the “body weight and clinical signs (in words)” value in data set [3] (2/1.5 mg/kg) was “varying degrees of body weight loss and dandruff”. The “tumor inhibitory effect (in words)” value in data set [3] (2/1.5 mg/kg, compared with the vehicle control group) is “significant tumor inhibitory effect”; in data set [4], “significant tumor inhibitory effect”. Also, the “Tumor volume (Day 21)” value in data set [3] (2/1.5 mg/kg, Day 21, Mean + SEM) is given as 57 ± 7 mm3. The “body weight loss of individual mice (administration discontinued)” value in data set [3] (2/1.5 mg/kg, from the 6th and 7th day, 1 mouse, then 3 mice) was “more than 15%”. In addition, the “effect on the body weight of mice (in words)” value in data set [3] (discussion, high-dose group) is given as “the body weight loss of mice was significant”. Also, the “dark yellow urine, suggestion of toxicity (in words)” value in data set [3] (mouse, in vivo) was “mice in the whole group had dark yellow urine”. For the same compound, the “inhibitory activity on CYP3A4 (in words)” value at CYP3A4 was “no inhibitory activity”. The “inhibitory activity on CYP1A2 (in words)” value against CYP1A2 is “no inhibitory activity”.
